According to US10081646B2, “Heterobicyclic sphingosine 1-phosphate analogs” (BIOGEN MA INC., priority 2008, dated 2018):

What follows are molecules tested on circulating lymphocytes (assay: Lymphopenia assay: measurement of circulating lymphocytes after oral gavage). Settings: Mus musculus, Lymphocyte, po, mice, oral gavage 0.5 and 5 mg/kg in 30% HPCD, blood 5 and 24 hours after administration; read-out: Lymphopenia (ED50 mg/kg).
Type: in vivo, Mice (C57bl/6 male)
Procedure: Measurement of circulating lymphocytes: Compounds were dissolved in 30% HPCD. Mice (C57bl/6 male, 6-10 week-old) were administered 0.5 and 5 mg/kg of a compound via oral gavage. 30% HPCD was included as a negative control.
Blood was collected from the retro-orbital sinus 5 and 24 hours after drug administration under short isoflurane anesthesia. Whole blood samples were subjected to hematology analysis. Peripheral lymphocyte counts were determined using an automated analyzer (HEMAVET™ 3700). Three mice were used to assess the lymphocyte depletion activity of each compound screened.

SMILES	ED50 [mg/kg]
CCCCCCCCc1ccc2nc(C(C)(N)CO)sc2c1 (stereo not shown) [Example 99, 2-amino-2-(6-octylbenzo[d]thiazol-2-yl)propan-1-ol]	> 5
NC(CO)(CO)C1CCc2cc(Sc3cccc(OCc4ccccc4)c3)ccc2C1 (stereo not shown) [Example 113, 2-Amino-2-(6-(3-(benzyloxy)phenylthio)-1,2,3,4-tetrahydronaphthalen-2-yl)propane-1,3-diol]	< 0.5
CCCCCCCOc1ccc2cc(C(C)(N)CO)cnc2c1 (stereo not shown) [Example 91, 2-amino-2-(7-(heptyloxy)quinolin-3-yl)propan-1-ol]	0.5 to 5
CC(C)(C)[C@H]1CC[C@H](Oc2ccc3c(c2C(F)(F)F)CC[C@H]([C@@](C)(N)CO)C3)CC1 [Example 71, (R)-2-amino-2-((S)-6-(trans-4-tert-butylcyclohexyloxy)-5-(trifluoromethyl)-1,2,3,4-tetrahydronaphthalen-2-yl)propan-1-ol]	< 0.5
CC(C)(C)[C@H]1CC[C@H](Oc2ccc3cc([C@](C)(N)CO)ccc3n2)CC1 (single isomer, unassigned) [Example 79A]	> 5
CCCCCCCOc1ccc2nc(C(C)(N)CO)ccc2c1 (stereo not shown) [Example 38, 2-amino-2-(6-(heptyloxy)quinolin-2-yl)propan-1-ol]	0.5 to 5
CCCCCCCOc1ccc2cc(C(C)(N)CO)ccc2n1 (stereo not shown) [Example 103, 2-amino-2-(2-(heptyloxy)quinolin-6-yl)propan-1-ol]	0.5 to 5
CC(C)(C)[C@H]1CC[C@H](Oc2ccc3nc([C@@](C)(N)CO)ncc3c2C(F)(F)F)CC1 [Example 61, (R)-2-Amino-2-(6-(trans-4-tert-butylcyclohexyloxy)-5-(trifluoromethyl)quinazolin-2-yl)propan-1-ol]	0.5 to 5
CC(C)(C)[C@H]1CC[C@H](Oc2ccc3cc([C@@](C)(N)CO)ccc3n2)CC1 (single isomer, unassigned) [Example 79]	> 5
CC(C)(C)[C@H]1CC[C@H](Oc2cc3c(cc2C(F)(F)F)C[C@@H]([C@@](C)(N)CO)CC3)CC1 [Example 71A, (R)-2-amino-2-((S)-6-(trans-4-tert-butylcyclohexyloxy)-7-(trifluoromethyl)-1,2,3,4-tetrahydronaphthalen-2-yl)propan-1-ol]	> 5
CCCCCCCOc1ccc2nc([C@@](C)(N)CO)ncc2c1 [Example 50, (R)-2-Amino-2-(6-heptyloxyquinazolin-2-yl)propan-1-ol]	0.5 to 5
CC(N)(CO)c1ccc2nc(O[C@H]3CC[C@H](C(C)(C)C)CC3)ccc2c1 (relative stereo) [Example 78, 2-amino-2-(2-(trans-4-tert-butylcyclohexyloxy)quinolin-6-yl)propan-1-ol]	> 5

Same assay, conditions: Mus musculus, Lymphocyte, po, read-out: Lymphopenia (ED50 mg/kg)

SMILES	ED50 [mg/kg]
CC(N)(CO)c1ccc2c(C(F)(F)F)c(O[C@H]3CC[C@H](C(C)(C)C)CC3)ccc2n1 (relative stereo) [Example 21, 2-Amino-2-[6-(trans-4-tert-butyl-cyclohexyloxy)-5-trifluoromethyl-quinolin-2-yl]-propan-1-ol]	< 0.5

Same assay, conditions: mice, oral gavage 0.5 and 5 mg/kg in 30% HPCD, blood 5 and 24 hours after administration

SMILES	Lymphopenia (ED50 mg/kg) [mg/kg]
CC(N)(CO)c1ccc2cc(O[C@H]3CC[C@H](C(C)(C)C)CC3)ccc2n1 (relative stereo) [Example 24, 2-Amino-2-[6-(trans-4-tert-butyl-cyclohexyloxy)-quinolin-2-yl]-propan-1-ol]	>5
CC(N)(CO)c1ccc2c(C(F)(F)F)c(O[C@H]3CC[C@H](C(C)(C)C)CC3)ccc2n1 (relative stereo) [Example 26, 2-Amino-2-[6-(trans-4-tert-butyl-cyclohexyloxy)-5-trifluoromethyl-quinolin-2-yl]-propan-1-ol]	<0.5
CC(N)(CO)c1ccc2c(C(F)(F)F)c(O[C@H]3CC[C@H](C(C)(C)C)CC3)ccc2n1 (relative stereo) [Example 27, 2-Amino-2-[6-(trans-4-tert-butyl-cyclohexyloxy)-5-trifluoromethyl-quinolin-2-yl]-propan-1-ol]	>5
CC(N)(CO)c1ccc2cc(O[C@H]3CC[C@H](C(C)(C)C)CC3)ccc2n1 (relative stereo) [Example 18, 2-Amino-2-[6-(trans-4-tert-butyl-cyclohexyloxy)-quinolin-2-yl]-propan-1-ol]	0.5 to 5
CC(N)(CO)c1ccc2cc(O[C@H]3CC[C@H](C(C)(C)C)CC3)ccc2n1 (relative stereo) [Example 23, 2-Amino-2-[6-(trans-4-tert-butyl-cyclohexyloxy)-quinolin-2-yl]-propan-1-ol]	<0.5

What follows are molecules tested against T1, human S1P3 receptor (Homo sapiens, UniProt Q99500) (assay: Calcium mobilization assay, recombinant CHEM cells expressing human S1P3). Settings: FLIPR.
T1 construct: host or cells: recombinant CHEM cells
T1 sequence (Q99500 whole entry): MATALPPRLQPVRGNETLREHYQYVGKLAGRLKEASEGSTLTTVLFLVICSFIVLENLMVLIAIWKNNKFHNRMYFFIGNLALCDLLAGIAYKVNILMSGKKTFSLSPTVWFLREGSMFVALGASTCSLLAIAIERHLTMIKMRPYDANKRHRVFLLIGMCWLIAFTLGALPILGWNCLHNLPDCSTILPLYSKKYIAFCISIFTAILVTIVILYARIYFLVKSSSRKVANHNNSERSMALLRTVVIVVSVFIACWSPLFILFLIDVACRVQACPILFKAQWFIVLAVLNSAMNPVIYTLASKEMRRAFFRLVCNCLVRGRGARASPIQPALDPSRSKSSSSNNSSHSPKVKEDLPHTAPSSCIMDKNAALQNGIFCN
Type: cell-based
Procedure: Compounds that were not specific for the S1P1 receptor, can have activity for other S1P receptor subtypes, e.g., S1P2, S1P3, S1P4, or S1P5, and can cause undesirable side effects. Accordingly, compounds were tested to identify those that were specific for S1P1 activity and had little or no activity, or are antagonists of, S1P3 activity. Accordingly, the test compounds were tested in a calcium mobilization assay to determine agonist activity at either the human S1P1 or human S1P3 receptor, and antagonist activity only at the human S1P3 receptor. The procedure was essentially as described (with modifications described below) in Davis et al. (2005) Journal of Biological Chemistry, vol. 280, pp. 9833-9841, which is incorporated by reference in its entirety. Calcium mobilization assays were performed in recombinant CHEM cells expressing human S1P1 or S1P3 purchased from Millipore (Billerica, Mass.). To detect free intracellular calcium, S1P1 or S1P3 cells were loaded with FLIPR Calcium 4 dye from Molecular Devices (Sunnyvale, Calif.). Cells were imagined for calcium mobilization using a FLIPR^TETRA equipped with a 96-well dispense head.

SMILES	S1P3 agonist activity
CCCCCCCCCCCCC/C=C/[C@@H](O)[C@@H](N)COP(=O)(O)O [Example S1P, Sphingosine 1-phosphate]	full S1P3 agonist
